Data taken from patent US20030166663A1, “Use” (priority 2001, published 2003).
Values joined by “and” are separate entries in the source; they are usually repeats but may differ in a detail not shown here. Equal values may be shown once. Read-outs that look alike come from different tables or passages of the source.

Assays:
[1] = Determination of plasma concentration at steady state (Css, tot) in ob/ob mice; format: in vivo, mouse; settings: continuous s.c. infusion, read-out: Css, tot (total plasma exposure at steady state)
Method: (§1) The animals are weighed at the start of the study and randomized based on body weight. Alzet osmotic minipumps (Model 2001D; infusion rate 8 μl/h) are used and loaded essentially as recommended by the Alzet technical information manual (Alza Scientific Products, 1997; Teeuwes and Yam, 1976). Continuous subcutaneous infusion with 24 hours duration is used. The minipumps are either filled with different concentrations of test compounds dissolved in vehicle or with only vehicle solution and maintained in vehicle pre-warmed to 37° C. (approx. 1 h). The minipumps are implanted subcutaneously in the neck/back region under short acting anesthesia (metofane/enflurane). This surgical procedure lasts approximately 5 min. It takes about 3 h to reach steady state delivery of the compound.
(§2) The weights of the food pellets are measured at 5 p.m. and at […]. for two days before (baseline) and one day after the implantation of the osmotic minipumps. The weighing is performed with a computer assisted Mettler Toledo PR 5002 balance. Occasional spillage is corrected for. At the end of the study the animals are killed by neck dislocation and trunk blood sampled for later analysis of plasma drug concentrations.
The plasma sample proteins are precipitated with methanol, centrifuged, and the supernatant is transferred to HPLC vials and injected into the liquid chromatography/mass spectrometric system. The mass spectrometer is set for electrospray positive ion mode and Multiple Reaction Monitoring.
A linear regression analysis of the standards forced through the origin is used to calculate the concentrations of the unknown samples.

ob/ob mice = test: Effect of compounds on food intake in ob/ob mice (15 h food consumption, s.c. minipump infusion); format: in vivo, mouse; settings: for Food intake, % of basal level, Mean: 15 h food consumption; for Inhibition (%) Based on basal (food intake): relative to vehicle
Method: Obese (ob/ob) mouse is selected as the primary animal model for screening as this mutant mouse consumes high amounts of food resulting in a high signal to noise ratio. To further substantiate and compare efficacy data, the effect of the compounds on food consumption is also studied in wild type (C57BL/6J) mice. The amount of food consumed during 15 hours of infusion of compounds is recorded.
Male mice (obese C57BL/6JBom-Lep^ob and lean wild-type C57B1/6JBom; Bomholtsgaard, Denmark) 8-9 weeks with an average body weight of 50 g (obese) and 25 g (lean) are used in all the studies. The animals are housed singly in cages at 23±1° C., 40-60 % humidity and have free access to water and standard laboratory chow. The 12/12-h light/dark cycle is set to lights off at 5 p.m. The animals are conditioned for at least one week before start of study.
The test compounds are dissolved in solvents suitable for each specific compound such as cyclodextrin, cyclodextrin/methane sulfonic acid, polyethylene glycol/methane sulfonic acid, or saline. Fresh solutions are made for each study. […] The purity of the test compounds is of analytical grade.
as §1, §2
Food consumption for 15 hours is measured for the three consecutive days and the percentage of basal level values is derived for each animal from the day before and after treatment. The values are expressed as mean±SD and mean±SEM from eight animals per dose group. Statistical evaluation is performed by Kruskal-Wallis one-way ANOVA using the per cent basal values. If statistical significance is reached at the level of p<0.05, Mann-Whitney U-test for statistical comparison between control and treatment groups is performed.

[2] = mouse, plasma, subcutaneous, nominal 10 mg/kg/day
[3] = mouse, plasma, subcutaneous, nominal 30 mg/kg/day
[4] = mouse, plasma, subcutaneous, nominal 100 mg/kg/day
[5] = nominal 10 mg/kg/day s.c. infusion
[6] = nominal 30 mg/kg/day s.c. infusion
[7] = nominal 100 mg/kg/day s.c. infusion

Structure (SMILES): Cc1c(S(=O)(=O)Nc2ccc3nccc(N4CCN(C)CC4)c3c2)sc2ccc(Cl)cc12 [EXAMPLE 1, 5-chloro-3-methyl-benzo[b]thiophene-2-sulphonic acid (4-[4-methylpiperazin-1-yl]quinolin-6-yl)amide]
- concentration at 24 h [1, 2]: 1000 nM
- concentration at 24 h [1, 3]: 1620 nM
- concentration at 24 h [1, 4]: 1810 nM
- Food intake, % of basal level, Mean (ob/ob mice; [5]): 62.5 % of basal level
- Food intake, % of basal level, Mean (ob/ob mice; [6]): 49.3 % of basal level
- Food intake, % of basal level, Mean (ob/ob mice; [7]): 49.9 % of basal level
- Inhibition (%) Based on basal (food intake) (ob/ob mice; [5]): 4.9%
- Inhibition (%) Based on basal (food intake) (ob/ob mice; [6]): 25.0%
- Inhibition (%) Based on basal (food intake) (ob/ob mice; nominal 30 mg/kg/day s.c. infusion, listed as 5-Chloro-3-methyl-benzo[b]thiophene-2-sulfonic acid (4-[4-methylpiperazin-1-yl]q): 25%
- Inhibition (%) Based on basal (food intake) (ob/ob mice; [7]): 24.1%
- Inhibition (%) Based on basal (food intake) (ob/ob mice; nominal 100 mg/kg/day s.c. infusion, listed as 5-Chloro-3-methyl-benzo[b]thiophene-2-sulfonic acid (4-[4-methylpiperazin-1-yl]q): 24%

Structure (SMILES): Clc1cccc(N2CCNCC2)c1 [mCCP, m-chlorophenylpiperazine, reference compound]
- concentration at 24 h ([1]; nominal 10 mg/kg/day): 610 nM and 780 nM
- Food intake, % of basal level, Mean (ob/ob mice; [5]): 31.2 % of basal level and 39.4 % of basal level
- Inhibition (%) Based on basal (food intake) (ob/ob mice; [5]): 52.5% and 39.6%

Structure (SMILES): CCCCc1ccc(S(=O)(=O)Nc2ccc3nccc(N4CCNCC4)c3c2)cc1 [EXAMPLE 2, 4-n-butyl-N-(4-piperazin-1-yl-quinolin-6-yl)benzenesulphonamide]
- concentration at 24 h [1, 2]: 370 nM
- concentration at 24 h [1, 3]: 940 nM
- concentration at 24 h [1, 4]: 1290 nM
- Food intake, % of basal level, Mean (ob/ob mice; [5]): 61.0 % of basal level
- Food intake, % of basal level, Mean (ob/ob mice; [6]): 45.5 % of basal level
- Food intake, % of basal level, Mean (ob/ob mice; [7]): 43.6 % of basal level
- Inhibition (%) Based on basal (food intake) (ob/ob mice; [5]): 6.5%
- Inhibition (%) Based on basal (food intake) (ob/ob mice; [6]): 30.2%
- Inhibition (%) Based on basal (food intake) (ob/ob mice; nominal 30 mg/kg/day s.c. infusion, listed as 4-n-Butyl-N-(4-piperazin-1-yl-quinolin-6-yl)benzenesulfonamide): 30%
- Inhibition (%) Based on basal (food intake) (ob/ob mice; [7]): 33.2%
- Inhibition (%) Based on basal (food intake) (ob/ob mice; nominal 100 mg/kg/day s.c. infusion, listed as 4-n-Butyl-N-(4-piperazin-1-yl-quinolin-6-yl)benzenesulfonamide): 33%
